This passage reports T/C results from PubChem BioAssay AID326 (DTP/NCI, 2004).

SMILES strings stand for the structures. Several values for one entry are separate records, joined by “and”; a condition that tells them apart may be missing. Equal values may be shown once. Inconclusive results and toxic doses are left out. Numbered stars: 1 amine (or outer) side, 2 acyl side, 3 side chain; on linkers, the order of the positions; unused ones are H or OH. Bridge positions count the residues as written; N and C are the ends. Square brackets hold non-standard residues; d marks the D form. Peptide text beside a SMILES is read from it. I, II: the chains in the order shown. Actinocin(9to1) = Cc1c2oc3c(C)ccc(C(=O)[*:1])c3nc-2c(C(=O)[*:2])c(N)c1=O; aThr = C[C@H](O)[C@H](N)C(=O)O; NMeV = CN[C@H](C(=O)O)C(C)C; Sar = CNCC(=O)O

The test system of the assay is CD2F1 mice, P388/DHAQ leukemia ip, median survival T/C. In words: NCI In Vivo Anticancer Drug Screen. Data for tumor model P388 Leukemia resistant to Dihydroxy Anthracenedione; NSC 299195 (intraperitoneal) in CD2F1 (CDF1) mice. Conditions: endpoint: median survival time, higher = longer survival. As for the experimental part:
The antitumor activity of compounds was measured in mice bearing transplantable tumors. Survival or tumor size were measured and the results are expressed as the measurement made in the treated group (T) divided by the measurement made in the vehicle treated control group (C). The tumor model used in this assay is P388 Leukemia resistant to Dihydroxy Anthracenedione; NSC 299195 (intraperitoneal) in CD2F1 (CDF1) mice

As for `Cc1c2ccncc2c(C)c2c1[nH]c1ccccc12`, the T/C (dose: 13.0 mg/kg/injection, schedule: Q04DX003 (ip), vehicle: saline with Tween-80) was 101 % of control and 107 % of control; the T/C (dose: 25.9 mg/kg/injection, schedule: Q04DX002 (ip), vehicle: saline with Tween-80) was 97 % of control; the T/C (dose: 32.4 mg/kg/injection, schedule: Q04DX002 (ip), vehicle: Klucel (hydroxypropylcellulose) (HPC)) was 111 % of control; the T/C (dose: 43.2 mg/kg/injection, schedule: Q04DX002 (ip), vehicle: saline with Tween-80) was 105 % of control; the T/C (dose: 54.0 mg/kg/injection, schedule: Q04DX002 (ip), vehicle: Klucel (hydroxypropylcellulose) (HPC)) was 100 % of control; the T/C (dose: 60.0 mg/kg/injection, schedule: Q04DX003 (ip), vehicle: saline with Tween-80) is 116 % of control and 223 % of control and 98 % of control. In addition, the T/C (dose: 72.0 mg/kg/injection, schedule: Q04DX002 (ip), vehicle: saline with Tween-80) was 112 % of control; the T/C (dose: 90.0 mg/kg/injection, schedule: Q04DX002 (ip), vehicle: Klucel (hydroxypropylcellulose) (HPC)) was 88 % of control; the T/C (dose: 120.0 mg/kg/injection, schedule: Q04DX002 (ip), vehicle: saline with Tween-80) is 114 % of control; the T/C (dose: 150.0 mg/kg/injection, schedule: Q04DX002 (ip), vehicle: Klucel (hydroxypropylcellulose) (HPC)) was 83 % of control.
`CC[C@]1(O)C[C@H]2CN(CCc3c([nH]c4ccccc34)[C@@](C(=O)OC)(c3cc4c(cc3OC)N(C=O)[C@H]3[C@@](O)(C(=O)OC)[C@H](OC(C)=O)[C@]5(CC)C=CCN6CC[C@]43[C@@H]65)C2)C1`: the T/C reads like this: (dose: 0.43 mg/kg/injection, schedule: Q04DX003 (ip), vehicle: saline) 160 % of control; (dose: 0.72 mg/kg/injection, schedule: Q04DX003 (ip), vehicle: saline) 150 % of control and 158 % of control and 169 % of control; (dose: 1.2 mg/kg/injection, schedule: Q04DX003 (ip), vehicle: saline) 161 % of control and 168 % of control and 172 % of control; (dose: 2.0 mg/kg/injection, schedule: Q04DX003 (ip), vehicle: saline) 168 % of control and 169 % of control and 195 % of control.
In the case of `O=C(O)CCCc1ccc(N(CCCl)CCCl)cc1`, the T/C is, setting by setting: (dose: 2.59 mg/kg/injection, schedule: Q04DX002 (ip), vehicle: saline with Tween-80) 100 % of control; (dose: 4.32 mg/kg/injection, schedule: Q04DX002 (ip), vehicle: saline with Tween-80) 101 % of control; (dose: 7.2 mg/kg/injection, schedule: Q04DX002 (ip), vehicle: saline with Tween-80) 100 % of control; (dose: 12.0 mg/kg/injection, schedule: Q04DX002 (ip), vehicle: saline with Tween-80) 100 % of control; (dose: 20.0 mg/kg/injection, schedule: Q04DX002 (ip), vehicle: saline with Tween-80) 106 % of control.
As to `CCN(CC)CCNc1ccc(C)c2sc3ccccc3c(=O)c12`, the T/C by setting is: (dose: 16.2 mg/kg/injection, schedule: Q01DX005 (ip), vehicle: saline) 106 % of control; (dose: 19.4 mg/kg/injection, schedule: Q01DX005 (ip), vehicle: saline) 100 % of control; (dose: 19.44 mg/kg/injection, schedule: Q01DX005 (ip), vehicle: saline) 106 % of control; (dose: 27.0 mg/kg/injection, schedule: Q01DX005 (ip), vehicle: saline) 107 % of control; (dose: 32.4 mg/kg/injection, schedule: Q01DX005 (ip), vehicle: saline) 102 % of control and 113 % of control; (dose: 38.9 mg/kg/injection, schedule: Q04DX003 (ip), vehicle: saline) 106 % of control. Further, the T/C reads like this: (dose: 45.0 mg/kg/injection, schedule: Q01DX005 (ip), vehicle: saline) 121 % of control; (dose: 54.0 mg/kg/injection, schedule: Q01DX005 (ip), vehicle: saline) 106 % of control and 124 % of control; (dose: 64.8 mg/kg/injection, schedule: Q04DX003 (ip), vehicle: saline) 104 % of control; (dose: 90.0 mg/kg/injection, schedule: Q01DX005 (ip), vehicle: saline) 112 % of control; (dose: 108.0 mg/kg/injection, schedule: Q04DX003 (ip), vehicle: saline) 120 % of control; (dose: 125.0 mg/kg/injection, schedule: Q01DX005 (ip), vehicle: saline) 105 % of control.
With `CN(Cc1cnc2nc(N)nc(N)c2n1)c1ccc(C(=O)N[C@@H](CCC(=O)O)C(=O)O)cc1`, the T/C was 161 % of control and 192 % of control (dose: 8.64 mg/kg/injection, schedule: Q04DX003 (ip), vehicle: sodium bicarbonate); 168 % of control and 195 % of control (dose: 14.4 mg/kg/injection, schedule: Q04DX003 (ip), vehicle: sodium bicarbonate); 108 % of control and 214 % of control (dose: 24.0 mg/kg/injection, schedule: Q04DX003 (ip), vehicle: sodium bicarbonate); 92 % of control (dose: 40.0 mg/kg/injection, schedule: Q04DX003 (ip), vehicle: sodium bicarbonate).
`O=C1c2ccccc2C(=O)c2c(NCCNCCO)ccc(NCCNCCO)c21`: the T/C is, setting by setting: (dose: 13.0 mg/kg/injection, schedule: Q04DX003 (ip), vehicle: saline) 109 % of control; (dose: 21.6 mg/kg/injection, schedule: Q04DX003 (ip), vehicle: saline) 120 % of control; (dose: 36.0 mg/kg/injection, schedule: Q04DX003 (ip), vehicle: saline) 123 % of control; (dose: 60.0 mg/kg/injection, schedule: Q04DX003 (ip), vehicle: saline) 108 % of control.
On to `CC[C@@]1(O)C[C@H](OC2CC(N(C)C)C(OC3CC(O)C(OC4CCC(=O)C(C)O4)C(C)O3)C(C)O2)c2c(cc3c(c2O)C(=O)c2c(O)ccc(O)c2C3=O)[C@H]1C(=O)OC` (some centres undefined), for which the T/C runs as follows: (dose: 1.56 mg/kg/injection, schedule: Q04DX003 (ip), vehicle: saline) 116 % of control; (dose: 4.32 mg/kg/injection, schedule: Q04DX003 (ip), vehicle: saline) 162 % of control; (dose: 7.2 mg/kg/injection, schedule: Q04DX003 (ip), vehicle: saline) 189 % of control and 190 % of control and 220 % of control.
In the case of `O=C(Nc1ccc(C2=NCCCN2)cc1)c1ccc(C(=O)Nc2ccc(C3=NCCCN3)cc2)cc1`, the T/C is, setting by setting: (dose: 4.32 mg/kg/injection, schedule: Q04DX003 (ip), vehicle: Klucel (hydroxypropylcellulose) (HPC)) 110 % of control; (dose: 6.48 mg/kg/injection, schedule: Q04DX003 (ip), vehicle: Klucel (hydroxypropylcellulose) (HPC)) 106 % of control; (dose: 7.2 mg/kg/injection, schedule: Q04DX003 (ip), vehicle: Klucel (hydroxypropylcellulose) (HPC)) 110 % of control; (dose: 10.8 mg/kg/injection, schedule: Q04DX003 (ip), vehicle: Klucel (hydroxypropylcellulose) (HPC)) 110 % of control and 119 % of control; (dose: 12.0 mg/kg/injection, schedule: Q04DX003 (ip), vehicle: Klucel (hydroxypropylcellulose) (HPC)) 112 % of control; (dose: 18.0 mg/kg/injection, schedule: Q04DX003 (ip), vehicle: Klucel (hydroxypropylcellulose) (HPC)) 107 % of control and 121 % of control. For the same molecule, the T/C reads like this: (dose: 20.0 mg/kg/injection, schedule: Q04DX003 (ip), vehicle: Klucel (hydroxypropylcellulose) (HPC)) 111 % of control; (dose: 30.0 mg/kg/injection, schedule: Q04DX003 (ip), vehicle: Klucel (hydroxypropylcellulose) (HPC)) 100 % of control; (dose: 50.0 mg/kg/injection, schedule: Q04DX003 (ip), vehicle: Klucel (hydroxypropylcellulose) (HPC)) 107 % of control.
`Cc1c2oc3c(C)ccc(C(=O)N[C@@H]4C(=O)N[C@H](C(C)C)C(=O)N5CCC[C@H]5C(=O)N(C)CC(=O)N(C)[C@@H](C(C)C)C(=O)O[C@H]4C)c3nc-2c(C(=O)N[C@@H]2C(=O)N[C@H](C(C)C)C(=O)N3CCC[C@H]3C(=O)N(C)CC(=O)N(C)[C@@H](C(C)C)C(=O)O[C@H]2C)c(N)c1=O` (I: [aThr][dV]P[Sar][NMeV] / II: [aThr][dV]P[Sar][NMeV]; ester I:1-I:C, II:1-II:C; linker I:N-II:N via Actinocin(9to1)): the T/C is 152 % of control and 154 % of control (dose: 108.0 micrograms/kg/injection, schedule: Q04DX003 (ip), vehicle: saline + alcohol); 152 % of control (dose: 130.0 micrograms/kg/injection, schedule: Q04DX003 (ip), vehicle: saline + alcohol); 157 % of control and 176 % of control (dose: 180.0 micrograms/kg/injection, schedule: Q04DX003 (ip), vehicle: saline + alcohol); 200 % of control (dose: 216.0 micrograms/kg/injection, schedule: Q04DX003 (ip), vehicle: saline + alcohol); 192 % of control and 201 % of control (dose: 300.0 micrograms/kg/injection, schedule: Q04DX003 (ip), vehicle: saline + alcohol); 206 % of control (dose: 360.0 micrograms/kg/injection, schedule: Q04DX003 (ip), vehicle: saline + alcohol). For the same molecule, the T/C runs as follows: (dose: 500.0 micrograms/kg/injection, schedule: Q04DX003 (ip), vehicle: saline + alcohol) 209 % of control; (dose: 600.0 micrograms/kg/injection, schedule: Q04DX003 (ip), vehicle: saline + alcohol) 227 % of control.
